# US20230129595A1, “PARENTERAL NUTRITION SOLUTION COMPRISING A SELENIUM SOURCE” (BAXTER INTERNATIONAL INC., priority 2019, published 2023)
# Experiments:
# [1] = cited from earlier work
# [2] = Selenium stability in sterilized multi trace element solutions, recovery of initial concentration (Example 4, FIGS. 1-3); details: for Selenium concentration during storage: FIGS. 1-3
# Source text: FIGS. 1-3: The recovery of the initial concentration of the different trace elements in percent (%) is indicated on the Y-axis of the Figures. The analyzed timepoints are is indicated on the X-axis. The timepoint −0.5 corresponds to the results of TE dosage on unsterilized sample at T0. Timepoint 0 corresponds to the results of TE dosage right after sterilization. Timepoint 0.5 correspond to the results of TE dosage after an accelerated stability stress cycle (i.e. three repetition of alternatively 5° C./50° C., 48 h/48 h). Timepoints 1, 3 and 6 correspond to the results of TE dosage after 1 month, 3 months and 6 months storage at 40° C./25% RH.
# For the three tested solutions containing different forms of selenium, the selenium is mixed with other TE (Zn, Cu, Mn, F, I, Mo, Cr, Fe), which were introduced as chloride salts. The solutions were acidified to pH 2.2 using malic acid and underwent terminal heat sterilization prior to storage.
# [3] = Pediaven, trace elements in the glucose chamber; announced July 2014; cited from earlier work
# [4] = Storage stability of selenium sources in a separate chamber (Example 3); details: separated chamber, alone or together with other trace elements; after 6 months storage at 40° C./25% RH
# Source text: Selenate was introduced with other trace elements into a separate chamber from macronutrients.
# [5] = mixed with other TE, pH 2.2 with malic acid, terminal heat sterilization, storage at 40° C./25% RH, selenate and selenomethionine compared with selenite
# [6] = mixed with other TE, pH 2.2 with malic acid, terminal heat sterilization
Compound,"Stability of selenium after storage for three months [2, 5]",Stability in solution [4],"Selenium concentration during storage [2, 6]",also measured
"[Na+].[Na+].[O]=[Mo](=[O])([O-])[O-] [Na2MoO4, 2H2O, sodium molybdate]",,,,Chemical form; Solubility in water [1]: <840 mg/mL
"O=[Se](O)O [selenite, reference compound]",lack of stability,,,
O=[Se]=O [selenium dioxide],,,,Presence of selenium in the finished product [3]: absent in the finished product
N[C@@H](C[SeH])C(=O)O [selenocysteine],,remained stable,,
C[Se]CC[C@H](N)C(=O)O [selenomethionine],,,remained stable,Stability of selenium after storage for three months ([2]; pH 2.2): better stability
O=[Se](=O)(O)O [sodium selenate],better stability,remained stable,remained stable,
